# Measured values as given in patent US20110245323A1, “RIG-Like Helicase Innate Immunity Inhibits VEGF-Induced Tissue Responses” (Yale University, priority 2006, published 2011).
# How the values were obtained:
# Assay type in all cases: in vivo, mouse
# [1] = system: CC10-rtTA-VEGF165 transgenic mice; test: VEGF-induced mucus metaplasia (PAS staining, BAL MUC5AC); conditions: for VEGF-induced mucus metaplasia (PAS stains, BAL MUC5AC accumulation): vs vehicle
# Experimental: (§1) To define the effects of Poly(I:C) a number of protocols were employed. In most experiments, a pretreatment-2 week protocol was employed. In these experiments, WT and Tg+ mice were treated with Poly(I:C) (30 μg in 50 lambda unless otherwise indicated; Amersham Biosciences, N.J.) or vehicle control via nasal aspiration and transgene activation was accomplished via the administration of dox (0.5 mg/ml) in the animal's drinking water 24 hours later. The Poly(I:C) was administered every other day and the dox was administered continuously for up to 2 weeks.
# Lastly, in selected experiments post-transgene activation protocols were employed. In these experiments dox was administered for 2 days or 2 weeks. The Poly(I:C) was then administered via intranasal aspiration every other day for 2 weeks as disclosed elsewhere herein. In selected pre-treatment and post-transgene activation experiments, unmethylated CpG (CpG-B) (Keck Center, Yale University) was also employed at similar doses. At the end of these intervals, assessments of angiogenesis (anti-CD31 immunohistochemistry), vascular permeability (Evan's blue dye extravasation, wet to dry lung weight measurements, BAL protein concentration), BAL and tissue inflammatory cell infiltration and mucus metaplasia (periodic acid-Schiff (PAS) staining, MUC5AC immunoblotting) were undertaken. In all cases experiments were designed to compare Tg− and Tg+ mice on normal water and Tg− and Tg+ mice on dox water.
# The lungs were removed en bloc as described elsewhere herein, inflated at 25 cm pressure with PBS containing 0.5% low melting point agarose gel, fixed in Streck solution (Streck Laboratories, La Vista, Nebr.), embedded in paraffin, sectioned and stained. Hematoxylin and eosin and PAS stains were performed in the Research Histology Laboratory of the Department of Pathology at the Yale University School of Medicine. Pulmonary hemorrhage was evaluated by quantitating BAL red blood cell number with a Coulter counter (Beckman Coulter).
# The levels of MUC5AC, the major airway mucin in BAL fluids, were assessed as previously described (Lee et al., 2008, Am J Respir Cell Mol Biol 39:739-746). In these evaluations, 0.1 ml of BAL fluid was slot blotted onto nitrocellulose membranes using a Minifold II slot blot apparatus (Schleicher & Schuell). After air-drying, the membrane was blocked with 5% skim milk, washed three times and incubated overnight at 4° C. with a monoclonal antibody against Mucin-5AC (45M1; NeoMarkers, Union City, Calif.). After washing, the membranes were incubated for 1 hour at room temperature with horseradish peroxidase-conjugated anti-mouse immunoglobulin (Ig)-G (Pierce). Immunoreactive mucins were detected using a chemiluminescent procedure (ECL Plus Western blotting detection system, Amersham Biosciences) according to instructions from the manufacturer.
# [2] = system: Erk, FAK, Akt, and eNOS signaling pathways; test: VEGF signaling in lung (eNOS/iNOS mRNA, immunoblot of Erk, FAK, Akt, eNOS); conditions: Tg+ mice lung
# Experimental: These experiments used antibodies specific for Akt or phosphorylated (p) Akt (Danvers Mass.), FAK or pFAK (BioSource, International; Camarillo Calif.), PI3K or pPI3K (Cell Signalling), eNOS and iNOS (Santa Cruz BioTechnology, Santa Cruz Calif., USA) and MUC-5AC (NeoMarkers; Fremont). Western blot analysis was performed using standard protocols and visualized using the ECL system (Amersham Biosciences; Piscataway, N.J.).
# Total RNA was isolated from fresh mouse lung with TRIzol reagent (Invitrogen; Carlsbad, Calif.) following the manufacturer's instructions. Quantification of mouse lung mRNA was performed by quantitative real-time PCR using ABI 7500 fast real-time PCR system (Applied Biosystems; Foster City, Calif.) and power SYBR green PCR master mix kit with appropriately specific primers (Applied Biosystems; Foster City, Calif.).
# Lung lysates were subjected to immunoblot analysis using antibodies against phosphorylated (p) p-Erk, total Erk, p-Fak; total FAK; p-Akt, total Akt, peNOS and total eNOS (Cell Signaling, Beverly Mass.).
# VEGFR1 = test: VEGF receptor expression on dendritic and endothelial cells, FACS; conditions: Tg+ mice, pretreatment-2 week protocol
# Experimental: (§2) Cell preparations were obtained from Tg− and Tg+ mice that had been randomized to receive Poly(I:C) or its vehicle control according to the pretreatment-2 week protocol described above. They were then incubated with antibodies against CD45, CD11c, MHCII, CD31, VEGFR1 (R & D Systems), VEGFR2 (Biolegends, San Diego, Calif. USA) or VEGFR3 (R&D Systems). FACS analysis was used to define the levels of receptor expression on dendritic cells (CD45+, CD11c+, MHCII+) and endothelial cells (CD45−, CD31+).
# VEGFR2 = test: as above; conditions: Tg+ mice, pretreatment-2 week protocol
# Experimental: as §2
# VEGFR3 = test: as above; conditions: Tg+ mice, pretreatment-2 week protocol
# Experimental: as §2
# MAVS = test: Poly(I:C) effects in MAVS null mice
# Description: (§3) TLR3^−/−-mice were a gift from Dr. Richard A. Flavell (Yale University), MAVS null mice were a gift from Dr Zijian J. Chen (U of Texas Southwestern) (Sun et al., 2006, Immunity 24:633-642), double stranded RNA-dependent protein kinase null mutant mice (PKR^−/−) were a gift from Dr. Bryan R. G. Williams (Cleveland Clinic Foundation) (Yang et al., 1995, Embo J 14:6095-6106) and IFNAR1 null mice were obtained from Dr. Richard Enelow (Dartmouth). These mice were bred with the VEGF Tg+ mice to generate transgenic mice with wild type (+/+) or null (−/−) TLR3, MAVS, PKR or IFNAR1 loci. Thus, in each given experiment, the effects in transgene negative (Tg−) and transgenic (Tg+) mice with WT and null TLR3, MAVS, PKR or IFNAR1 loci were compared.
# as §1
# OVA sensitization (with alum) and aerosol OVA challenge were undertaken as previously described (Lee et al., 2008, Am J Respir Cell Mol Biol 39:739-746; Lee et al., 2009, J Exp Med 206:1149-1166). The responses in mice that had been treated with Poly(I:C) or vehicle 24 hours before the aerosol challenge were compared. The BAL and tissue responses were evaluated 24 hours after antigen challenge.
# PKR = test: Poly(I:C) regulation of VEGF responses in PKR null VEGF Tg+ mice; conditions: angiogenesis and dye extravasation
# Description: as §3, §1
substance,measurement,setting,value
polyinosinic-polycytidylic acid [Poly(I:C)],VEGF-stimulated mucus secretion,"[1]; Tg+ mice, pretreatment",decreased
same,"VEGF-induced mucus metaplasia (PAS stains, BAL MUC5AC accumulation)","[1]; Tg+ mice, pretreatment",inhibited
same,"VEGF-induced mucus metaplasia (PAS stains, BAL MUC5AC accumulation)","[1]; Tg+ mice, pretreatment, listed as poly(I:C)",significantly decreased
same,"VEGF-induced mucus metaplasia, delayed administration",[1]; given 48 hours or 14 days after dox-induced transgene activation,significant inhibition
same,lowest dose with significant inhibition of VEGF-induced mucus metaplasia,[1]; pretreatment,5 µg
same,dose with maximal inhibition of VEGF-induced mucus metaplasia,"[1]; pretreatment, highest dose tested",30 µg
same,"VEGF activation/phosphorylation of Erk, FAK, Akt and eNOS","[2]; 30 μg pretreatment, 2 weeks",significantly decreased
same,VEGF-induced eNOS and iNOS mRNA accumulation and AKT phosphorylation/activation,[2]; p<0.05,significant decrease
same,expression of VEGFR1 on dendritic cells and endothelial cells,VEGFR1,inhibited
same,expression of VEGFR2 on dendritic cells and endothelial cells,VEGFR2,not
same,expression of VEGFR3 on dendritic cells and endothelial cells,VEGFR3,not
same,"ability to inhibit VEGF-induced angiogenic, edema, inflammatory and mucus responses in MAVS deficient animals","MAVS; 30 μg pretreatment, 2 weeks",abrogated
same,induction of Type I IFNs in mice with null MAVS loci,MAVS; BAL IFN-α and IFN-β,significantly ameliorated
same,inhibitory effects on OVA-induced inflammation in MAVS null animals,MAVS; OVA sensitization and challenge,abrogated
same,effects of Poly(I:C) in PKR null mice,PKR,not significantly altered
